15 compounds from patent publication US11884627B2, “Compounds and compositions for treating conditions associated with LPA receptor activity” (Lhotse Bio, Inc., priority 2022, dated 2024) can be followed below.

Each structure is given as a SMILES string.

For assay [1], the target named is T1, human LPA1 (Homo sapiens, UniProt Q92633).
T1 construct: expressed in transfected cells; host or cells: CHO-K1
The experiment in a line: In vitro LPA1 functional antagonist assay (calcium mobilization, FLIPR). The following applies: CHO-K1 cells overexpressing human LPA1, Oleoyl LPA challenge at EC80. Type of assay: cell-based. The procedure:
In Vitro LPA1 Functional Antagonist Assay
CHO-K1 cells overexpressing human LPA1 were seeded in a total volume of 20 μL into black-walled, clear-bottom. Poly-D-lysine coated 384-well microplates and incubated at 37° C., for the appropriate time prior to testing. Assays were performed in 1× Dye Loading Buffer consisting of 1× Dye, 1× Additive A and 2.5 mM Probenecid in HBSS/20 mM Hepes. Probenicid was prepared fresh. Cells were loaded with dye prior to testing. Media was aspirated from cells and replaced with 20 μL Dye Loading Buffer. Cells were incubated for 30-60 minutes at 37° C. After dye loading, cells were removed from the incubator and 10 μL 3× test compound was added. Cells were incubated for 30 minutes at room temperature in the dark to equilibrate plate temperature followed by Oleoyl LPA challenge at EC80. Compound antagonist activity was measured on a FLIPR Tetra (MSD). Calcium mobilization was monitored for 2 minutes and 10 μL Oleoyl LPA in HBSS/20 mM Hepes was added to the cells 5 seconds into the assay. For LPA EC80 determination, after dye loading, cells were removed from the incubator and 10 μL HBSS/20 mM Hepes was added. 3× vehicle was included in the buffer. Cells were incubated for 30 minutes at room temperature in the dark to equilibrate plate temperature. Intermediate dilution of LPA stocks was performed to generate 4×LPA samples in assay buffer. LPA agonist activity was measured on a FLIPR Tetra (MSD). Calcium mobilization was monitored for 2 minutes and 10 μL 4×LPA sample in HBSS/20 mM Hepes was added to the cells 5 seconds into the assay. Compound activity was analyzed using CBIS data analysis suite (ChemInnovation, CA). Percentage inhibition is calculated using the following formula: % Inhibition=100%×(1−(mean RFU of test sample−mean RFU of vehicle control)/(mean RFU of LPA control−mean RFU of vehicle control)).
Table B1 and Table B2 show the biological activity of compounds in in vitro LPA1 functional antagonist assay. Activity of the tested compounds provided in Table B1 is as follows: +++=IC50<1 μM; ++=IC50 1 μM−10 μM; +=IC50>10 μM.

Assay [2] has as its target T1, human LPA1. The assay is described as follows: In vitro LPA1 calcium flux antagonist assay - Bioduro protocol. The conditions noted are these: CHO-K1 cells overexpressing human LPA1 and G15a, LPA challenge at EC80. The class given is cell-based. Put shortly: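 CHO-K1 cells overexpressing human LPA1 and G15a, serum-starved 4 h, loaded with Fluo-8 AM plus 2.5 mM probenecid in HBSS/20 mM Hepes for 30 min at 37 °C. Compound preincubated 30 min, then LPA challenge at EC80; FLIPR calcium signal, % inhibition relative to DMSO and LPA controls.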

The mark [3] stands for this setting: Table B1, read-out: Activity (IC50 class).
Where [4] appears, read: calcium mobilization on FLIPR Tetra, read-out: IC50.
Setting [5] is: Table B3, read-out: Activity (IC50 class).

T1 sequence (Q92633 whole entry): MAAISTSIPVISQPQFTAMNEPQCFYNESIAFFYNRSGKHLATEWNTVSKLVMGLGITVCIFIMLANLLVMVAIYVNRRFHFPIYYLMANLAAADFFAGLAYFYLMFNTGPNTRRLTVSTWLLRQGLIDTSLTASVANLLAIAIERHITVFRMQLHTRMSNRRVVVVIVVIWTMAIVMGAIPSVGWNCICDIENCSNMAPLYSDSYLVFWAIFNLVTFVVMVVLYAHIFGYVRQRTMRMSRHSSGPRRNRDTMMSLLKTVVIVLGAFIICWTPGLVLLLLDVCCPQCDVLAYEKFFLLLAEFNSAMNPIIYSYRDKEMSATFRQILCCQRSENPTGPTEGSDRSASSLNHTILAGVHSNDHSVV

Consider `COc1cc(-c2ccc(NC3(C(=O)O)CC3)cc2COC2Cc3ccccc3C2)cc(OC)c1C` [Compound 109, 1-((2-(((2,3-dihydro-1H-inden-2-yl)oxy)methyl)-3′,5′-dimethoxy-4′-methyl-[1,1′-biphenyl]-4-yl)amino)cyclopropane-1-carboxylic acid], for which the IC50 at human LPA1 [1] (setting [3]) was less than 1000 nM; on human LPA1 [1] (Table B2, read-out: IC50), 2.68 nM; at human LPA1 [2] (setting [4]), 94.1 nM; at human LPA1 [2] (setting [5]), less than 100 nM.
On to `COc1cc(-c2ccc(NC3(C(=O)O)CCOCC3)cc2COC2CC2)c(F)c(OC)c1C` [Compound 256, 4-((2-(cyclopropoxymethyl)-2′-fluoro-3′,5′-dimethoxy-4′-methyl-[1,1′-biphenyl]-4-yl)amino)tetrahydro-2H-pyran-4-carboxylic acid], for which the IC50 is 10.3 nM at human LPA1 [1] (Table B2, read-out: IC50); 16.5 nM on human LPA1 [2] (setting [4]); less than 100 nM on human LPA1 [2] (setting [5]).
For `COc1cc(-c2ccc(NC3(C(=O)O)CCOCC3)cc2COC2CCCC2)c(C(F)F)c(OC)n1` [Compound 283], in that order: 10.9 nM, 11.5 nM and less than 100 nM.
Consider `CCOc1cccc(-c2ccc(NC3(C(=O)O)CCOCC3)cc2COC2CC2)c1Cl` [Compound 295, 4-((2′-chloro-2-(cyclopropoxymethyl)-3′-ethoxy-[1,1′-biphenyl]-4-yl)amino)tetrahydro-2H-pyran-4-carboxylic acid], for which the IC50 at human LPA1 [1] (Table B2, read-out: IC50) was 7.94 nM; on human LPA1 [2] (setting [4]), 3.31 nM; on human LPA1 [2] (setting [5]) it was less than 100 nM.
For `CCOc1c(C)ccc(-c2ccc(NC3(C(=O)O)CCOCC3)cc2COC2CCCC2)c1C` [Compound 280], in that order: 18.6 nM, 8.12 nM and less than 100 nM.
On to `COc1cc(OC)cc(-c2ccc(OCCC(=O)O)cc2COC2Cc3ccccc3C2)c1` [Compound 104], for which the 50% inhibitory concentration (IC50) is less than 1000 nM at human LPA1 [1] (setting [3]); 162 nM on human LPA1 [1] (Table B2, read-out: IC50); 628 nM at human LPA1 [2] (setting [4]); 100 to 1000 nM at human LPA1 [2] (setting [5]).
As for `COc1cc(-c2ccc(NC3(C(=O)O)CCOCC3)cc2CCC2CCOC2)cc(OC)c1C` (single isomer, unassigned) [Compound 185, 4-((3′,5′-dimethoxy-4′-methyl-2-(2-(tetrahydrofuran-3-yl)ethyl)-[1,1′-biphenyl]-4-yl)amino)tetrahydro-2H-pyran-4-carboxylic acid], the IC50 on human LPA1 [1] (Table B2, read-out: IC50) was 9.54 nM; on human LPA1 [2] (setting [4]), 12.6 nM; at human LPA1 [2] (setting [5]), less than 100 nM.
For the compound `CCOc1cc(OC)cc(-c2ccc(NC3(C(=O)O)CCOCC3)cc2CCC2CC2)c1F` [Compound 298], the half-maximal inhibitory concentration (IC50) on human LPA1 [1] (Table B2, read-out: IC50) was 2.64 nM; on human LPA1 [2] (setting [4]), 0.763 nM; on human LPA1 [2] (setting [5]), less than 100 nM.
For `CCCOc1cccc(-c2ccc(NC3(C(=O)O)CCOCC3)cc2COC2CCCC2)c1F` [Compound 284], in that order: 3.97 nM, 11.9 nM and less than 100 nM.
As for `Cc1c(OC2CC2)cccc1-c1ccc(NC2(C(=O)O)CCOCC2)cc1COC1CCCC1` [Compound 285], the IC50 at human LPA1 [1] (Table B2, read-out: IC50) was 6.62 nM; on human LPA1 [2] (setting [4]) it was 13.9 nM; at human LPA1 [2] (setting [5]), less than 100 nM.
For `Cc1c(OC2CC2)cccc1-c1ccc(NC2(C(=O)O)CCOCC2)cc1COC1CC1` [Compound 294, 4-((3′-cyclopropoxy-2-(cyclopropoxymethyl)-2′-methyl-[1,1′-biphenyl]-4-yl)amino)tetrahydro-2H-pyran-4-carboxylic acid], in that order: 7.15 nM, 5.85 nM and less than 100 nM.
For `CCOc1cccc(-c2ccc(NC3(C(=O)O)CCOCC3)cc2COC2CC2)c1C` [Compound 355, 4-((2-(cyclopropoxymethyl)-3′-ethoxy-2′-methyl-[1,1′-biphenyl]-4-yl)amino)tetrahydro-2H-pyran-4-carboxylic acid], in that order: 7.53 nM, 3.02 nM and less than 100 nM.
Consider `COc1cc(OC)cc(-c2ccc(NCCC(=O)O)cc2COC2Cc3ccccc3C2)c1` [Compound 103], for which the concentration for half-maximal inhibition (IC50) at human LPA1 [1] (setting [3]) was 1000 to 10000 nM; on human LPA1 [1] (Table B2, read-out: IC50), 1540 nM.
As to `COc1cc(-c2ccc(NCCC(=O)O)cc2COC2Cc3ccccc3C2)cc(OC)c1C` [Compound 101, 3-((2-(((2,3-dihydro-1H-inden-2-yl)oxy)methyl)-3′,5′-dimethoxy-4′-methyl-[1,1′-biphenyl]-4-yl)amino)propanoic acid], the IC50 on human LPA1 [1] (setting [3]) was less than 1000 nM; on human LPA1 [1] (Table B2, read-out: IC50), 27.2 nM; at human LPA1 [2] (setting [4]), 340 nM; on human LPA1 [2] (setting [5]) it was 100 to 1000 nM.
For `COc1cc(-c2ccc(OCCC(=O)O)cc2COC2Cc3ccccc3C2)cc(OC)c1C` [Compound 105, 3-((2-(((2,3-dihydro-1H-inden-2-yl)oxy)methyl)-3′,5′-dimethoxy-4′-methyl-[1,1′-biphenyl]-4-yl)oxy)propanoic acid], in that order: less than 1000 nM, 13.6 nM, 245 nM and 100 to 1000 nM.
